Test results published in article PMC9216188, “Expanding the Biological Properties of Alkannins and Shikonins: Their Impact on Adipogenesis and Life Expectancy in Nematodes” (Frontiers in Pharmacology, 2022).
“Also recorded” adds a separate entry of the source. Read-outs that look alike come from different tables or passages of the source.

How the values were obtained:
ADIPOQ [1] = assay: RT-PCR relative mRNA expression of ADIPOQ in differentiated 3T3-L1 cells; format: cell-based, Mouse; details: day 11
Method: (§1) 3T3-L1 pre-adipocytes were differentiated into mature adipocytes following the aforementioned differentiation protocol (vide infra). Briefly, pre-adipocytes were treated with either 10 ng/ml of insulin and/or hydroxynaphthoquinones (100 nM or 1 μΜ). The tested compounds were first dissolved in DMSO and subsequently in the culture medium, with the final concentration of DMSO not exceeding 0.1% v/v. The initial stock concentration was 50 mM. Cells treated with insulin were considered as positive control whereas untreated cells were included as vehicle control. On the 11th day of the differentiation process, cell differentiation was assessed and validated by oil red O staining, as described elsewhere ([Tsave et al., 2016]). Further validation of successful adipogenesis was also confirmed by the relative expression of closely related biomarkers PPAR-γ and adiponectin (ADIPOQ).
(§2) Total RNA was extracted from cells on the 11th day of the differentiation protocol, using TRItidy-G reagent. The concentration and purity (absorbance ratio 260/280) of the extracted RNA were measured with a NanoDrop™ 2000c spectrophotometer (Thermo Fisher Scientific, United States). Synthesis of cDNA was performed with the iScript cDNA synthesis kit according to manufacturer instructions. RT-PCR was run on Rotor Gene Q (Qiagen) using the iTaq Universal SYBR Green Supermix and appropriate reagents (Qiagen, United States).
(§3) Customized primers were used from Qiagen for adiponectin (Mm_Adipoq_1_SG, NM_009605, Q01048047), GAPDH (Mm Gapdh_3_SG, QT01658692) and mPPAR-γ forward 5′-GTCAGCGACTGGGACTTTTC-3′ and reverse 5′-CGAGGACATCCAAGACAACC-3’.

PPAR-γ [2] = assay: RT-PCR relative mRNA expression of PPAR-γ in differentiated 3T3-L1 cells; format: cell-based, Mouse; details: day 11
Method: as §1, §2, §3

3T3-L1 pre-adipocytes [3] = assay: Differentiation of 3T3-L1 cells, lipid quantification by Oil Red O staining; format: cell-based, Mouse; details: for lipid accumulation / lipid accumulation (formed lipids) / fold decrease in lipid accumulation: 1 μM, ORO stain, day 11; for lipid accumulation: absence of insulin; for lipid accumulation (formed lipids) / fold decrease in lipid accumulation: in the presence of insulin
Method: (§4) Mouse fibroblast 3T3-L1 preadipocytes were kindly donated by the Laboratory of Inorganic Chemistry, School of Chemical Engineering, Aristotle University of Thessaloniki (Thessaloniki, Greece) and cultured in 75 cm^2 cell culture flasks in high-glucose DMEM supplemented with 10% FBS, 100 units/mL penicillin and […] streptomycin at 37°C in 5% CO2 and standard humidity. Medium was changed three times per week, until cells reached confluence. Two days post-confluency (day 0), cells were induced to differentiate by treating them with a differentiation/induction medium containing DMEM supplemented with 0.5 mM IBMX, 1 μM DEX, […] of insulin, and 10% FBS. Three days later (day 3), the medium was replaced with DMEM containing 10% FBS and 1 μg/ml insulin for two more days, after which (day 5) the medium was changed to DMEM with 10% FBS. The medium was replaced every 2 days until cells were harvested on day 11 ([Tsave et al., 2018]).
as §1
3T3-L1 preadipocytes were seeded in 24-well plates at a density of 3.5 × 10^4 cells per well and differentiated as described above. On the 11th day, cells were washed three times with sterile PBS, fixed with formaldehyde 3.7%–4.0% for 20 min and stained with Oil Red O (ORO) solution for 10 min. Next, cells were washed with double distilled water (ddH2O) and stained lipids were observed and imaged under an inverted microscope, as described elsewhere ([Tsave et al., 2016]). The analysis and quantification of lipid accumulation—based on the amount of ORO dye—was performed by using ImageJ software (National Institutes of Health, United States). In brief, the RGB images with the stained lipids were converted to 8-bit grayscale (Image → Type → 8-bit). Next, a manual threshold was set (Image → Adjust → Threshold) for each sample and the stained areas were measured (Analyze → Measure) ([Mehlem et al., 2013]).

3T3-L1 pre-adipocytes [4] = assay: Cell viability of undifferentiated 3T3-L1 cells (CellTiter-Glo); format: cell-based, Mouse; details: for inhibition of cell viability: 4 μM; for IC50: Mus musculus, read-out: IC50 (cell viability)
Method: as §4
(§5) Viability of undifferentiated 3T3-L1 cells upon treatment with various concentrations of the hydroxynaphthoquinones was assessed using CellTiter-Glo assay in opaque-walled 96-well plates. This method utilizes the luciferase reaction for quantifying adenosine triphosphate (ATP), which is an indicator of cellular metabolic activity. Through the luciferase reaction, luminescence is generated in proportion to the amount of available ATP. […] Briefly, cells were seeded in a 96-well plate at a density of 3.5 × 10^3 cells and a total volume of 100 μl per well. After 24 h incubation, cells were treated with different concentrations (10 nM–10 μΜ) of the hydroxynaphthoquinones for 24 and 48 h. After the respective incubation times, cells in each condition were treated with a volume of the reagent equal to the volume of cell culture medium present in each well. The luminescence was recorded with a Glomax 96 microplate luminometer (Promega Corporation, United States). Untreated cells served as control samples. Each assay was performed three times, with at least three replicates each.
(§6) All tested compounds were previously dissolved in DMSO. The final concentration of DMSO in each well was lower than 0.1%. To confirm that DMSO at that concentration was inert, a screening was performed at various concentrations (0.00002%–2%) and cell viability was assessed. Cell viability was expressed as the percentage of viability observed in each compound, compared to the untreated cells.

3T3-L1 pre-adipocytes [5] = tested on: 3T3-L1 pre-adipocytes; parameters: method as in Lee et al., 2010; Gwon et al., 2013; Ha et al., 2016; details: 0.5–2 μM ref Lee et al., 2010; Gwon et al., 2013; Ha et al., 2016; cited from earlier work
[6] = Cell viability of undifferentiated 3T3-L1 cells (CellTiter-Glo); format: cell-based, Mouse; details: mouse; 0.01, 0.1, and 1 μM, 24 h; read-out: cell viability (% of untreated cells)
Method: as §4, §5, §6

PPAR-γ [7] = tested on: PPAR-γ; parameters: method as in Lee et al., 2010; Gwon et al., 2013; details: 0.5–2 μM ref Lee et al., 2010; Gwon et al., 2013; cited from earlier work
ADIPOQ [8] = tested on: ADIPOQ; parameters: method as in Lee H.-Y. et al., 2009; details: 2 μM ref Lee H.-Y. et al., 2009; cited from earlier work
C. elegans N2 wild-type = assay: C. elegans survival assay (nematocidal activity); format: in vivo, Caenorhabditis elegans; details: for % Survival after 10 days ±SD: N2 worms
Method: Caenorhabditis elegans wild-type var. Bristol N2, SS104 [glp-4 (bn2ts)] and Escherichia coli OP50 were provided by the Caenorhabditis Genetics Center (University of Minnesota, United States). Media and NGM agar plates have been prepared as described before ([Zwirchmayr et al., 2020]). OP50 were grown in LB medium for 8 h at 37°C, then harvested by centrifugation, washed twice with ddH2O and suspended in S-complete medium at 100 mg/ml. Worms were maintained on NGM agar plates inoculated with OP50. Synchronized cultures were prepared by egg-prep method ([Porta-de-la-Riva et al., 2012]) and experiments started at the […].
The survival assay was performed as described before: Briefly, a suspension of 5–18 synchronized L1 larvae (N2 wild-type) in S-complete medium were manually seeded into 96-well plates. OP50 at a concentration of 6 mg/ml was added immediately and worms were kept at 25°C. The following day, when all worms reached the L3 stage, the sterilizing-agent 5-Fluorodeoxyuridine (FUdR; 0.12 mM final; Sigma-Aldrich, F0503) was added to keep the population synchronized. The next day, samples were added in triplicate wells to the adult worm culture with DMSO as a carrier at a final concentration of 1%. The number of living worms in each well was counted on day 0, 3, 5, 7 and 10 of the treatment. The worms were oxygenized every 3 days and OP50 were added on day 5 of adulthood to prevent starvation. Results of three parallel experiments are presented as bar charts and are given as the mean survival rate of worms.

C. elegans = tested on: C. elegans; parameters: method as in Hunt et al., 2011; details: 100 to 500 μM, applied to solid agar medium ref Hunt et al., 2011; cited from earlier work
[9] = compound alone, absence of insulin

With `CC(C)=CCCC1=CC(=O)c2c(O)ccc(O)c2C1=O` [DS, Deoxy-shikonin] the “ADIPOQ mRNA expression, fold increase” value (ADIPOQ [1]; [9]) was “strongest inhibition; also recorded: complete impediment of ADIPOQ expression”, the “ADIPOQ mRNA expression, fold increase” value (ADIPOQ [1]; compound together with insulin) was 4.85 fold and the “PPAR-γ mRNA expression, fold increase” value (PPAR-γ [2]; compound together with insulin) was 5.08 fold. For the same molecule, the lipid accumulation (3T3-L1 pre-adipocytes [3]) was 1.78%, the “lipid accumulation (formed lipids)” value (3T3-L1 pre-adipocytes [3]) was “exceeded 10%” and the “concentrations showing reduced cell viability” value (3T3-L1 pre-adipocytes [4]; 24 h) was > 4 µM.
In the case of `CC(C)=CC[C@@H](OC(=O)CC(C)(C)O)C1=CC(=O)c2c(O)ccc(O)c2C1=O` [β-hydroxy-isovaleryl-shikonin, reference compound], the effect on adipogenesis (3T3-L1 pre-adipocytes [5]) is listed as “inhibit adipogenesis”.
With “insulin: human recombinant insulin, positive control of differentiation [reference compound]” the “ADIPOQ mRNA expression, fold increase” value (ADIPOQ [1]; positive control sample (insulin)) was 8.67 fold and the “PPAR-γ mRNA expression, fold increase” value (PPAR-γ [2]; positive control sample (insulin group)) was 10.78 fold.
With `CC(C)=CC[C@H](O)C1=CC(=O)c2c(O)ccc(O)c2C1=O` [A, Alkannin] the “ADIPOQ mRNA expression, fold increase” value (ADIPOQ [1]; [9]) was “strongest inhibition”, the “ADIPOQ mRNA expression, fold increase” value (ADIPOQ [1]; compound together with insulin) was “not showing any increase at all” and the “PPAR-γ mRNA expression, fold increase” value (PPAR-γ [2]; compound together with insulin) was 0.20 fold. The lipid accumulation (3T3-L1 pre-adipocytes [3]) was 1.56%, the “fold decrease in lipid accumulation” value (3T3-L1 pre-adipocytes [3]) was 37 fold and the “inhibition of the formation of lipids” value (3T3-L1 pre-adipocytes [3]; in the presence of insulin (Figure 4)) was ~100%. For the same molecule, the viability [6] was > 146%, the “inhibition of cell viability” value (3T3-L1 pre-adipocytes [4]; 24 h) was “more than 90%” and the IC50 (3T3-L1 pre-adipocytes [4]; 3T3-L1 cells, 24 h) was < 3 µM.
In the case of `CC(C)=CC[C@@H](O)C1=CC(=O)c2c(O)ccc(O)c2C1=O` [S, Shikonin], the “ADIPOQ mRNA expression, fold increase” value (ADIPOQ [1]; [9]) is listed as 2.4 fold, the “ADIPOQ mRNA expression, fold increase” value (ADIPOQ [1]; compound together with insulin) is listed as < 1 fold and the effect on adipogenesis (3T3-L1 pre-adipocytes [5]) is listed as “inhibit adipogenesis”. The “effect on expression of PPAR-γ” value (PPAR-γ [7]) was “significantly inhibited”, the “PPAR-γ mRNA expression, fold increase” value (PPAR-γ [2]; compound together with insulin) was 1.27 fold and the lipid accumulation (3T3-L1 pre-adipocytes [3]) was 2.58%. The “fold decrease in lipid accumulation” value (3T3-L1 pre-adipocytes [3]) was 22 fold, the viability [6] was > 146% and the “inhibition of cell viability” value (3T3-L1 pre-adipocytes [4]; 24 h) was “more than 90%”. For the same molecule, the IC50 (3T3-L1 pre-adipocytes [4]; 3T3-L1 cells, 24 h) was < 3 µM and the “effect on ADIPOQ expression” value (ADIPOQ [8]) was “strongly inhibit”.
In the case of `CC(C)=CC[C@@H](OC(=O)CC(C)C)C1=CC(=O)c2c(O)ccc(O)c2C1=O` [IVS, Isovaleryl-shikonin], the IC50 (3T3-L1 pre-adipocytes [4]; 3T3-L1 cells, 24 h) is reported as 8.66 µM and the “concentrations showing reduced cell viability” value (3T3-L1 pre-adipocytes [4]; mouse, 24 h) is reported as > 4 µM.
With `CC(=O)O[C@H](CC=C(C)C)C1=CC(=O)c2c(O)ccc(O)c2C1=O` [ACS, Acetyl-shikonin] the “concentrations showing reduced cell viability” value (3T3-L1 pre-adipocytes [4]; 24 h) was > 4 µM.
In the case of `O=C1C=CC(=O)c2c(O)ccc(O)c21` [NAPH, Naphthazarin], the “ADIPOQ mRNA expression, fold increase” value (ADIPOQ [1]; [9]) is reported as 1.79 fold, the “ADIPOQ mRNA expression, fold increase” value (ADIPOQ [1]; compound together with insulin) is reported as 2.13 fold and the “% Survival after 10 days ±SD” value (C. elegans N2 wild-type; 15 μg/ml) is reported as 0.00 ± 0.00 %. For the same molecule, the “worms surviving the first 3 days of treatment” value (C. elegans N2 wild-type; 15 μg/ml, day 3) was 50%, the “% Survival after 10 days ±SD” value (C. elegans N2 wild-type; 60 μg/ml) was 0.00 ± 0.00 % and the “nematodes dead at the third day of treatment” value (C. elegans N2 wild-type; 60 μg/ml, day 3) was ~100%. For the same molecule, the “effect on lifespan of C. elegans” value (C. elegans) was “extend the lifespan”, the “PPAR-γ mRNA expression, fold increase” value (PPAR-γ [2]; compound together with insulin) was 5.2 fold and the lipid accumulation (3T3-L1 pre-adipocytes [3]) was 5.74%. For the same molecule, the “lipid accumulation (formed lipids)” value (3T3-L1 pre-adipocytes [3]) was “exceeded 10%” and the IC50 (3T3-L1 pre-adipocytes [4]; 3T3-L1, 24 h) was < 3 µM.
With `CC(C)=CC[C@@H](OC(=O)C=C(C)C)C1=CC(=O)c2c(O)ccc(O)c2C1=O` [DMAS, β,β-Dimethyl-acryl-shikonin] the “ADIPOQ mRNA expression, fold increase” value (ADIPOQ [1]; [9]) was 3.03 fold, the “ADIPOQ mRNA expression, fold increase” value (ADIPOQ [1]; compound together with insulin) was 3.24 fold and the “% Survival after 10 days ±SD” value (C. elegans N2 wild-type; 15 μg/ml) was 73.87 ± 1.61 %. For the same molecule, the “% Survival after 10 days ±SD” value (C. elegans N2 wild-type; 60 μg/ml) was 62.22 ± 17.36 %, the “PPAR-γ mRNA expression, fold increase” value (PPAR-γ [2]; [9]) was 8.37 fold and the “PPAR-γ mRNA expression, fold increase” value (PPAR-γ [2]; compound together with insulin) was 4.71 fold. For the same molecule, the lipid accumulation (3T3-L1 pre-adipocytes [3]) was 15.65%, the “lipid accumulation (formed lipids)” value (3T3-L1 pre-adipocytes [3]) was 9.24% and the “concentrations showing reduced cell viability” value (3T3-L1 pre-adipocytes [4]; mouse, 24 h) was > 4 µM.
